Results as given in BindingDB's records for patent US20230357269 (Les Laboratoires Servier, 2023).

Molecular target: Leucine-rich repeat serine/threonine-protein kinase 2 (Homo sapiens, UniProt Q5S007)
Assay: LRRK2 Kinase Activity Assay
Description: LRRK2 Kinase reactions were carried out in 384-well white polystyrene plates in a final volume of 6 μl using ADP-Glo Kinase Assay kit (Promega Corp.). Compound and substrates (LRRKtide peptide and ATP) in assay buffer were first dispensed in wells. Kinase reaction was then started by the addition of human recombinant LRRK2 protein. After 1h-incubation at 37 C., the enzymatic reaction was stopped by the addition of 6 μl of ADP-Glo Reagent-1 and an additional 40-minutes incubation at 23 C. (residual ATP depletion). A final 30-minutes incubation after 12 μL reagent-2 addition (ADP to ATP conversion and luciferin/luciferase reaction) was performed before luminescent signal acquisition (EnVision multimode plate reader-PerkinElmer, Inc.). Data from 10 individual concentrations of tested compounds (N=2) were fitted (XLfit -ID Business Solutions Ltd) to deliver IC50s (compound concentration leading to 50% inhibition of reference enzymatic activity).

Sequence of Leucine-rich repeat serine/threonine-protein kinase 2 (Q5S007 whole entry): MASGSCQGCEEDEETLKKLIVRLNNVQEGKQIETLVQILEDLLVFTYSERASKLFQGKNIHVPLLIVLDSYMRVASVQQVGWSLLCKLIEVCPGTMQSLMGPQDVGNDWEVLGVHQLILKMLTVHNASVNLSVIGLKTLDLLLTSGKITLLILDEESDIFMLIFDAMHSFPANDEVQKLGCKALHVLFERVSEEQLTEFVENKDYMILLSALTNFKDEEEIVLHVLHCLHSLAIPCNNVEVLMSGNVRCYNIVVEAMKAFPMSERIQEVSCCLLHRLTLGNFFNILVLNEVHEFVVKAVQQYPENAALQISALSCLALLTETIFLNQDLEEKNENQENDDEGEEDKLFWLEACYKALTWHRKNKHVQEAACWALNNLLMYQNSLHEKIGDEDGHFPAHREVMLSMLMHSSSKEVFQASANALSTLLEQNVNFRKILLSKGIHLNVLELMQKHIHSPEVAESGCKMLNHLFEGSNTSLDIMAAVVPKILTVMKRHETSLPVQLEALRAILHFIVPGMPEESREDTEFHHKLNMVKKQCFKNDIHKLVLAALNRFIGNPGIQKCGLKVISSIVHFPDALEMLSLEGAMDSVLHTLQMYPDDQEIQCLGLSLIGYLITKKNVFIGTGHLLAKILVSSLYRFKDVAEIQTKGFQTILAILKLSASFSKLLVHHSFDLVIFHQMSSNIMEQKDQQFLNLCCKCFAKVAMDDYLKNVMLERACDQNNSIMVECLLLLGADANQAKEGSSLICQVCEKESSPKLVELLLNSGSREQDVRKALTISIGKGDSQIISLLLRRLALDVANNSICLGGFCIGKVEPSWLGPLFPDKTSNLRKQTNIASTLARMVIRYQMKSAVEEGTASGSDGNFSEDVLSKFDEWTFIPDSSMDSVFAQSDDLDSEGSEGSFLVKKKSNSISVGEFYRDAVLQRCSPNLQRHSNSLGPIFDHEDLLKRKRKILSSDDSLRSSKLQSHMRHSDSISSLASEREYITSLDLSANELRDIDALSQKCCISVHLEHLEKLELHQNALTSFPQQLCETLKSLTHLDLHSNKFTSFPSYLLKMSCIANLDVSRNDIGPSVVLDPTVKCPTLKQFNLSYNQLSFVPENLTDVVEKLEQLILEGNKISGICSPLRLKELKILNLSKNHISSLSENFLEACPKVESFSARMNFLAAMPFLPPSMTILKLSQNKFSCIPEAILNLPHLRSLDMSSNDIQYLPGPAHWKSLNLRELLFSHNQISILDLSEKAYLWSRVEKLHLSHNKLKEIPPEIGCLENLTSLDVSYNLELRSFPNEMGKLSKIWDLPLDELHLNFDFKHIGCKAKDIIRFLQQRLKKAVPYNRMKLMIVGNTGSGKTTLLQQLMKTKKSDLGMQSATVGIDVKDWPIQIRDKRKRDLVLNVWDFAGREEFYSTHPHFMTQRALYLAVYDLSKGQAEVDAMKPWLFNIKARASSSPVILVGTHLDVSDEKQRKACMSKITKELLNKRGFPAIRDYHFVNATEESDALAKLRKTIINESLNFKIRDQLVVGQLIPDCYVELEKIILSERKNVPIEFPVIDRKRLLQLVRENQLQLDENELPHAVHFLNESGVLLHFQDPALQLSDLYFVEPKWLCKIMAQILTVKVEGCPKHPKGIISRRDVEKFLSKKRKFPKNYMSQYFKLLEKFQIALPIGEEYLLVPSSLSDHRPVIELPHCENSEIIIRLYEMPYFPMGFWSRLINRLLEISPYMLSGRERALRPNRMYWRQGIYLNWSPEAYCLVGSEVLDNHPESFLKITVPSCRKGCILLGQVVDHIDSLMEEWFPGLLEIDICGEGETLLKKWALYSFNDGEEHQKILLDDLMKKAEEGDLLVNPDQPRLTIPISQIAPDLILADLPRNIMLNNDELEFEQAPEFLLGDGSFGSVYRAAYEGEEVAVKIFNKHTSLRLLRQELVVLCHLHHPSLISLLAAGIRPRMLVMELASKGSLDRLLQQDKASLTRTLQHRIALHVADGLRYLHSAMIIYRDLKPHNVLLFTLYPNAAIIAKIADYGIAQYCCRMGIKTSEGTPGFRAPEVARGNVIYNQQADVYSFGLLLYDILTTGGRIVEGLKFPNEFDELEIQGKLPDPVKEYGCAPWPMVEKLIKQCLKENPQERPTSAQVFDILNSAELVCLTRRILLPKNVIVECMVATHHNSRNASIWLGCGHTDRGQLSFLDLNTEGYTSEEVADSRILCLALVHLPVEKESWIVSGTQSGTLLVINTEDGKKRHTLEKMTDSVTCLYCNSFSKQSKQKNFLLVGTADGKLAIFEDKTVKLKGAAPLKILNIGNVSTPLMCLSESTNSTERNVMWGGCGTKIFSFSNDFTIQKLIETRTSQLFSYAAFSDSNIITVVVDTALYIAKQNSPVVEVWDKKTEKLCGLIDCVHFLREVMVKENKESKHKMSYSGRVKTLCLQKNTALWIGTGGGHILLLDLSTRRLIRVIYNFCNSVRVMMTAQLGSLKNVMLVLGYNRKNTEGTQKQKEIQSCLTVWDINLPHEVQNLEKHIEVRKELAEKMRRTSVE

IC50 [nM] | Compound
< 10 | O=C1NCCCOc2ccc3[nH]nc(c3c2)-c2cc(Br)cc(c2)CO1 [US20230357269, Example 9]
< 10 | O=C1NCCCOc2ccc3[nH]nc(c3c2)-c2ccc(Br)c(c2)CO1 [US20230357269, Example 30]
